Literature values as cited in patent US20190352262A1, “New Pleuromutilin Antibiotic Compounds, Compositions and Methods of Use and Synthesis” (YALE UNIVERSITY, priority 2017, published 2019).
Entries after “also recorded” stand apart in the source; their conditions may differ.

Test system: Gram-positive bacteria
Settings: background statement, no data of the applicant

Row | SMILES | antibacterial activity (growth inhibition of Gram-positive bacteria)
1 | C=C[C@]1(C)C[C@@H](O)[C@]2(C)[C@H](C)CC[C@]3(CCC(=O)[C@H]32)[C@@H](C)[C@@H]1O [(+)-mutilin] | not active; also recorded: largely inactive
2 | C=C[C@]1(C)C[C@@H](OC(=O)CO)[C@@]2(C)C3C(=O)CC[C@@]3(CC[C@H]2C)[C@H](C)C1O (single isomer, unassigned; (+)) [(+)-Pleuromutilin, (+)-pleuromutilin] | inhibit the growth
